The target in one experiment is T1, human GCGR (Homo sapiens, UniProt P47871).
T1 construct: expressed in transfected cells; kept under Blasticidin and Hygromycin selection
Briefly: cAMP activity assay, cells expressing human GCGR. Format: cell-based. Conditions: for EC50: cAMP production, cells expressing human GCGR, assay buffer with or without 20% human serum (not stated which); for hGCGR/hGLP1R (hTone): ratio of human GCGR EC50 to human GLP1R EC50. As to the method:
(§1) Activity of the peptides at the Glucagon receptor (GCGR) and GLP-1 receptor (GLP1R) was measured in a cAMP activity assay. Peptides were dissolved in 100% DMSO and serially diluted to generate 10 point titrations. The peptide solutions were then transferred into 384-well assay plates (150 nL/well). […] Production of cAMP was determined using […] kits (DiscoverX) following manufacturer protocol. The plates were incubated for overnight at room temperature in the dark. Luminescence was measured using an EnVision Multilabel plate reader (Perkin Elmer). Native GLP-1 and Glucagon (Bachem) are used as control peptides. EC50 values were calculated using uses a 4 parameter logistic fit based on the Levenberg-Marquardt algorithm.
(Cyclic AMP is a second messenger, typically raised through Gs and lowered through Gi signalling.)

Another experiment addresses T2, human GLP1R (Homo sapiens, UniProt P43220).
T2 construct: expressed in transfected cells; kept under Blasticidin and Hygromycin selection
The experiment can be described thus: cAMP activity assay, cells expressing human GLP1R. It counts as cell-based. Particulars: cAMP production, assay buffer with or without 20% human serum (not stated which). As to the method:
as §1

This note sets out measurements from patent US11492385B2, “Long-acting co-agonists of the glucagon and GLP-1 receptors” (Merck Sharp & Dohme Corp., priority 2015, dated 2022).

Structures are written as SMILES. Like-named read-outs stand apart in the source and are kept apart here. Starred links: 1 amine or outer side, 2 acyl side, 3 side chain; linkers in the order of their positions; H or OH if unused. Non-standard residues stand in square brackets, D forms with d. Residues, ends and D or L forms follow the SMILES beside them. Groups on a side chain read outwards from the residue. *: point of attachment. Phe(4-CH2NH2) = NCc1ccc(C[C@H](N)C(=O)O)cc1; C18 diacid = O=C(O)CCCCCCCCCCCCCCCCC(=O)*; C17 diacid = O=C(O)CCCCCCCCCCCCCCCC(=O)*; αMeW = C[C@](N)(Cc1c[nH]c2ccccc12)C(=O)O; C16 diacid = O=C(O)CCCCCCCCCCCCCCC(=O)*; γGlu = O=C(O)[C@H](CCC(=O)[*:2])N[*:1]; Met(O2) = CS(=O)(=O)CC[C@H](N)C(=O)O; Palmitoyl = CCCCCCCCCCCCCCCC(=O)*; AEEA = NCCOCCOCC(=O)O; Aib = CC(C)(N)C(=O)O

T1 sequence (P47871 26-477): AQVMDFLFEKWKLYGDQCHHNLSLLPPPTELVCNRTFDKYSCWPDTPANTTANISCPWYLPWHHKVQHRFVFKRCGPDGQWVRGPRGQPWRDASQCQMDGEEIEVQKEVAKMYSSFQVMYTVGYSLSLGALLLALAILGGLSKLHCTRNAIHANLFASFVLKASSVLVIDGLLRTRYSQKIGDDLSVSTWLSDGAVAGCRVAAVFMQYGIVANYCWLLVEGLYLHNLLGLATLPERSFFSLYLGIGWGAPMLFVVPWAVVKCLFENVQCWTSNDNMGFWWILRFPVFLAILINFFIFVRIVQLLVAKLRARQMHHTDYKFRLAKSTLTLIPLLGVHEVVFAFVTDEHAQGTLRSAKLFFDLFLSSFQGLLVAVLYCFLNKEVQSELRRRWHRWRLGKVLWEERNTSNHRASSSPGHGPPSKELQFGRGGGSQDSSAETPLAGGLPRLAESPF
T2 sequence (P43220 24-463): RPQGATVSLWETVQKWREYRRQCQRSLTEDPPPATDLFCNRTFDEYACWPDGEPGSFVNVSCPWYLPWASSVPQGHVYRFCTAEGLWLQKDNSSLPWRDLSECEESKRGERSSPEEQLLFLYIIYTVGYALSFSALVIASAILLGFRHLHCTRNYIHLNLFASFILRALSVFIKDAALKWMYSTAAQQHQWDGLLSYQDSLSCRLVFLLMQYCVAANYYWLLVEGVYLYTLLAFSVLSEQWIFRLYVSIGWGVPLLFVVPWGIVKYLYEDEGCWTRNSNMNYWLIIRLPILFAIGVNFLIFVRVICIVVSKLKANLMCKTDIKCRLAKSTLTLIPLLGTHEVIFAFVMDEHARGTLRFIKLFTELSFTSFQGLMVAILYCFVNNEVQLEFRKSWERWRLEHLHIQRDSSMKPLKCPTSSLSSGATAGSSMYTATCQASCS

In general, EC50 refers to the concentration needed to bring the measured effect to its halfway point. As for `CC(C)C[C@H](NC(=O)[C@H](Cc1ccc(O)cc1)NC(=O)[C@H](CCCCN)NC(=O)[C@H](CO)NC(=O)[C@H](Cc1ccc(O)cc1)NC(=O)[C@H](CC(=O)O)NC(=O)[C@H](CO)NC(=O)[C@@H](NC(=O)[C@H](Cc1ccccc1)NC(=O)[C@@H](NC(=O)CNC(=O)[C@H](CCC(N)=O)NC(=O)C(C)(C)NC(=O)[C@@H](N)Cc1c[nH]cn1)[C@@H](C)O)[C@@H](C)O)C(=O)N[C@@H](CC(=O)O)C(=O)N[C@@H](C)C(=O)N[C@@H](CCCNC(=N)N)C(=O)N[C@@H](C)C(=O)N[C@@H](C)C(=O)N[C@@H](CCCCNC(=O)COCCOCCNC(=O)COCCOCCNC(=O)CC[C@H](NC(=O)CCCCCCCCCCCCCCC(=O)O)C(=O)O)C(=O)N[C@@H](CC(=O)O)C(=O)N[C@@H](Cc1ccccc1)C(=O)N[C@H](C(=O)N[C@@H](CCC(N)=O)C(=O)N[C@@H](Cc1c[nH]c2ccccc12)C(=O)N[C@@H](CC(C)C)C(=O)N[C@@H](CC(C)C)C(=O)N[C@@H](CC(=O)O)C(=O)N[C@H](C(N)=O)[C@@H](C)O)C(C)C` [compound 17] (H-H[Aib]QGTFTSDYSKYLDARAAK([AEEA-AEEA-γGlu-C16 diacid])DFVQWLLDT-NH2), the EC50 on human GCGR (read-out: GCGR EC50 human) is 0.14 nM; at human GLP1R, 0.1 nM. For the same compound, at human GCGR, the “hGCGR/hGLP1R (hTone)” value came out at 1.44.
For `CC(C)C[C@H](NC(=O)[C@H](Cc1c[nH]c2ccccc12)NC(=O)[C@H](CCC(N)=O)NC(=O)[C@@H](NC(=O)[C@H](Cc1ccccc1)NC(=O)[C@H](CC(=O)O)NC(=O)[C@H](CCC(N)=O)NC(=O)[C@H](C)NC(=O)[C@H](C)NC(=O)[C@H](CCCNC(=N)N)NC(=O)C(C)(C)NC(=O)[C@H](CC(=O)O)NC(=O)[C@H](CC(C)C)NC(=O)[C@H](Cc1ccc(O)cc1)NC(=O)[C@H](CCCCNC(=O)COCCOCCNC(=O)COCCOCCNC(=O)CC[C@H](NC(=O)CCCCCCCCCCCCCCCCC(=O)O)C(=O)O)NC(=O)[C@H](CO)NC(=O)[C@H](Cc1ccc(O)cc1)NC(=O)[C@H](CC(=O)O)NC(=O)[C@H](CO)NC(=O)[C@@H](NC(=O)[C@H](Cc1ccccc1)NC(=O)[C@@H](NC(=O)CNC(=O)[C@H](CCC(N)=O)NC(=O)C(C)(C)NC(=O)[C@@H](N)Cc1c[nH]cn1)[C@@H](C)O)[C@@H](C)O)C(C)C)C(=O)N[C@@H](CCS(C)(=O)=O)C(=O)N[C@@H](CC(=O)O)C(=O)N[C@H](C(N)=O)[C@@H](C)O` [compound 5] (H-H[Aib]QGTFTSDYSK([AEEA-AEEA-γGlu-C18 diacid])YLD[Aib]RAAQDFVQWL[Met(O2)]DT-NH2), the values for the EC50 at human GCGR (read-out: GCGR EC50 human) and on human GLP1R were 0.97 nM and 0.11 nM, respectively. Further, the “hGCGR/hGLP1R (hTone)” value at human GCGR was 8.80.
As for `CCCCCCCCCCCCCCCC(=O)N[C@@H](CCC(=O)NCCOCCOCC(=O)NCCOCCOCC(=O)NCc1ccc(C[C@H](NC(=O)[C@H](CC(=O)O)NC(=O)[C@H](CO)NC(=O)[C@@H](NC(=O)[C@H](Cc2ccccc2)NC(=O)[C@@H](NC(=O)CNC(=O)[C@H](CCC(N)=O)NC(=O)C(C)(C)NC(=O)[C@@H](N)Cc2c[nH]cn2)[C@@H](C)O)[C@@H](C)O)C(=O)N[C@@H](CO)C(=O)N[C@@H](CCCCN)C(=O)N[C@@H](Cc2ccc(O)cc2)C(=O)N[C@@H](CC(C)C)C(=O)N[C@@H](CC(=O)O)C(=O)N[C@@H](C)C(=O)N[C@@H](CCCNC(=N)N)C(=O)N[C@@H](C)C(=O)N[C@@H](C)C(=O)N[C@@H](CCC(N)=O)C(=O)N[C@@H](CC(=O)O)C(=O)N[C@@H](Cc2ccccc2)C(=O)N[C@H](C(=O)N[C@@H](CCC(N)=O)C(=O)N[C@@H](Cc2c[nH]c3ccccc23)C(=O)N[C@@H](CC(C)C)C(=O)N[C@@H](CCS(C)(=O)=O)C(=O)N[C@@H](CC(=O)O)C(=O)N[C@H](C(N)=O)[C@@H](C)O)C(C)C)cc1)C(=O)O` [compound 13] (H-H[Aib]QGTFTSD[Phe(4-CH2NH2)]([AEEA-AEEA-γGlu-Palmitoyl])SKYLDARAAQDFVQWL[Met(O2)]DT-NH2), on human GCGR, the “hGCGR/hGLP1R (hTone)” value came out at 2.19.
For the compound `CC(C)C[C@H](NC(=O)[C@H](Cc1ccc(O)cc1)NC(=O)[C@H](CCCCN)NC(=O)[C@H](CO)NC(=O)[C@H](Cc1ccc(O)cc1)NC(=O)[C@H](CC(=O)O)NC(=O)[C@H](CO)NC(=O)[C@@H](NC(=O)[C@H](Cc1ccccc1)NC(=O)[C@@H](NC(=O)CNC(=O)[C@H](CCC(N)=O)NC(=O)C(C)(C)NC(=O)[C@@H](N)Cc1c[nH]cn1)[C@@H](C)O)[C@@H](C)O)C(=O)N[C@@H](CC(=O)O)C(=O)N[C@@H](C)C(=O)N[C@@H](CCCNC(=N)N)C(=O)N[C@@H](C)C(=O)N[C@@H](C)C(=O)N[C@@H](CCCCNC(=O)COCCOCCNC(=O)COCCOCCNC(=O)CC[C@H](NC(=O)CCCCCCCCCCCCCCCC(=O)O)C(=O)O)C(=O)N[C@@H](CC(=O)O)C(=O)N[C@@H](Cc1ccccc1)C(=O)N[C@H](C(=O)N[C@@H](CCC(N)=O)C(=O)N[C@@H](Cc1c[nH]c2ccccc12)C(=O)N[C@@H](CC(C)C)C(=O)N[C@@H](CCS(C)(=O)=O)C(=O)N[C@@H](CC(=O)O)C(=O)N[C@H](C(N)=O)[C@@H](C)O)C(C)C` [compound 47] (H-H[Aib]QGTFTSDYSKYLDARAAK([AEEA-AEEA-γGlu-C17 diacid])DFVQWL[Met(O2)]DT-NH2), the “hGCGR/hGLP1R (hTone)” value on human GCGR worked out at 1.30.
On to `CC(C)C[C@H](NC(=O)[C@H](Cc1ccc(O)cc1)NC(=O)[C@H](CCCCN)NC(=O)[C@H](CO)NC(=O)[C@H](Cc1ccc(O)cc1)NC(=O)[C@H](CC(=O)O)NC(=O)[C@H](CO)NC(=O)[C@@H](NC(=O)[C@H](Cc1ccccc1)NC(=O)[C@@H](NC(=O)CNC(=O)[C@H](CCC(N)=O)NC(=O)C(C)(C)NC(=O)[C@@H](N)Cc1c[nH]cn1)[C@@H](C)O)[C@@H](C)O)C(=O)N[C@@H](CC(=O)O)C(=O)N[C@@H](C)C(=O)N[C@@H](CCCNC(=N)N)C(=O)N[C@@H](C)C(=O)N[C@@H](C)C(=O)N[C@@H](CCCCNC(=O)COCCOCCNC(=O)COCCOCCNC(=O)CC[C@H](NC(=O)CCCCCCCCCCCCCCC(=O)O)C(=O)O)C(=O)N[C@@H](CC(=O)O)C(=O)N[C@@H](Cc1ccccc1)C(=O)N[C@H](C(=O)N[C@@H](CCC(N)=O)C(=O)N[C@@](C)(Cc1c[nH]c2ccccc12)C(=O)N[C@@H](CC(C)C)C(=O)N[C@@H](CCS(C)(=O)=O)C(=O)N[C@@H](CC(=O)O)C(=O)N[C@H](C(N)=O)[C@@H](C)O)C(C)C` [compound 78] (H-H[Aib]QGTFTSDYSKYLDARAAK([AEEA-AEEA-γGlu-C16 diacid])DFVQ[αMeW]L[Met(O2)]DT-NH2), for which the “hGCGR/hGLP1R (hTone)” value at human GCGR is 3.
The compound `CC(C)C[C@H](NC(=O)[C@H](CC(C)C)NC(=O)[C@H](Cc1c[nH]c2ccccc12)NC(=O)[C@H](CCC(N)=O)NC(=O)[C@@H](NC(=O)[C@H](Cc1ccccc1)NC(=O)[C@H](CC(=O)O)NC(=O)[C@H](CCC(N)=O)NC(=O)[C@H](C)NC(=O)[C@H](C)NC(=O)[C@H](CCCNC(=N)N)NC(=O)C(C)(C)NC(=O)[C@H](CC(=O)O)NC(=O)[C@H](CC(C)C)NC(=O)[C@H](Cc1ccc(O)cc1)NC(=O)[C@H](CCCCN)NC(=O)[C@H](CO)NC(=O)[C@H](Cc1ccc(CNC(=O)COCCOCCNC(=O)COCCOCCNC(=O)CC[C@H](NC(=O)CCCCCCCCCCCCCCC(=O)O)C(=O)O)cc1)NC(=O)[C@H](CC(=O)O)NC(=O)[C@H](CO)NC(=O)[C@@H](NC(=O)[C@H](Cc1ccccc1)NC(=O)[C@@H](NC(=O)CNC(=O)[C@H](CCC(N)=O)NC(=O)C(C)(C)NC(=O)[C@@H](N)Cc1c[nH]cn1)[C@@H](C)O)[C@@H](C)O)C(C)C)C(=O)N[C@@H](C)C(=O)N[C@H](C(=O)N[C@@H](CCCCNC(=O)CC[C@H](N)C(=O)O)C(N)=O)[C@@H](C)O` [compound 11] (H-H[Aib]QGTFTSD[Phe(4-CH2NH2)]([AEEA-AEEA-γGlu-C16 diacid])SKYLD[Aib]RAAQDFVQWLLATK(γGlu)-NH2) came in with an EC50 at human GCGR (GCGR EC50 human) of 1.03 nM. The “hGCGR/hGLP1R (hTone)” value at human GCGR is listed as 4.15.
For `CC(C)C[C@H](NC(=O)[C@H](Cc1ccc(O)cc1)NC(=O)[C@H](CCCCN)NC(=O)[C@H](CO)NC(=O)[C@H](Cc1ccc(O)cc1)NC(=O)[C@H](CC(=O)O)NC(=O)[C@H](CO)NC(=O)[C@@H](NC(=O)[C@H](Cc1ccccc1)NC(=O)[C@@H](NC(=O)CNC(=O)[C@H](CCC(N)=O)NC(=O)[C@@H](CO)NC(=O)[C@@H](N)Cc1c[nH]cn1)[C@@H](C)O)[C@@H](C)O)C(=O)N[C@@H](CC(=O)O)C(=O)N[C@@H](C)C(=O)N[C@@H](CCCNC(=N)N)C(=O)N[C@@H](C)C(=O)N[C@@H](C)C(=O)N[C@@H](CCC(N)=O)C(=O)N[C@@H](CCCCNC(=O)COCCOCCNC(=O)COCCOCCNC(=O)CC[C@H](NC(=O)CCCCCCCCCCCCCCCCC(=O)O)C(=O)O)C(=O)N[C@@H](Cc1ccccc1)C(=O)N[C@H](C(=O)N[C@@H](CCC(N)=O)C(=O)N[C@@H](Cc1c[nH]c2ccccc12)C(=O)N[C@@H](CC(C)C)C(=O)N[C@@H](CC(C)C)C(=O)N[C@@H](CC(=O)O)C(=O)N[C@H](C(N)=O)[C@@H](C)O)C(C)C` [compound 21] (H-H[dS]QGTFTSDYSKYLDARAAQK([AEEA-AEEA-γGlu-C18 diacid])FVQWLLDT-NH2), the “hGCGR/hGLP1R (hTone)” value at human GCGR worked out at 0.17.
